Measurements from patent US7135572B2 (CJ Corp, priority 2001, dated 2006).

What was measured:
cyclooxygenase-2 = molecular target: T1, cyclooxygenase-2 (Mus musculus, UniProt Q05769); assay: Inhibition of cyclooxygenase-2 in Raw 264.7 cells treated with interferon γ and LPS (PGE2 EIA); format: cell-based; conditions: Raw 264.7 cells
T1 construct: endogenous in cells; host or cells: Raw 264.7 (Korean cell line bank), aspirin-pretreated, induced with interferon gamma and LPS
T1 sequence (Q05769 18-604): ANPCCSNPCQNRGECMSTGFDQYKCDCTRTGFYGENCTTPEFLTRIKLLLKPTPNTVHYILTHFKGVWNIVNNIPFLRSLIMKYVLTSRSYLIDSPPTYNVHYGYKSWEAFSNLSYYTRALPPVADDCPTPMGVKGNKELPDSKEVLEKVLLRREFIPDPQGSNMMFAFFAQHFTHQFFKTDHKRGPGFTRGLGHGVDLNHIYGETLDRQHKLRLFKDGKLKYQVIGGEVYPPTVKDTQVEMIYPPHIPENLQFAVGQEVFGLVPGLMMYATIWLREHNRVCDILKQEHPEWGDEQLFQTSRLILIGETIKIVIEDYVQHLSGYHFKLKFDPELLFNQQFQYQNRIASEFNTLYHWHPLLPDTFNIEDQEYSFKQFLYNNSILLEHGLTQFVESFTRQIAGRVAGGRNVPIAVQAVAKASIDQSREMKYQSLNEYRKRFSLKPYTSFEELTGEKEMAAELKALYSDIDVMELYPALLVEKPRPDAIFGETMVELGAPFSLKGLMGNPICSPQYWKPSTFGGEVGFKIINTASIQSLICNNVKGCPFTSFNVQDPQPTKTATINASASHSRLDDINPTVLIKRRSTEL
Procedure: (§1) In order to investigate pharmacologically the selective inhibition activity against cyclooxygenase-2 enzyme, the inhibitive effects against cyclooxygenase-1 and cyclooxygenase-2 were measured by two methods as follows.
And then, each samples were replaced with new media and cultured for 30 minutes. In addition, the samples was treated with 100 units/ml of interferon Υ and 100 ng/ml of lipopolysaccharide(LPS), and cultured for 18 hours. Then, the media was transferred to other tubes and the PGE 2 was quantitated by using EIA kit from Cayman Chemicals.

cyclooxygenase-1 = molecular target: T2, cyclooxygenase-1 (Homo sapiens, UniProt P23219); assay: Inhibition of cyclooxygenase-1 in U-937 cells (PGE2 quantitation); format: cell-based; conditions: U-937 cells
T2 construct: The cultured U-937 (humane lymphoma cell, obtained from Korean cell line bank) was centrifuged to collect the pellet; endogenous in cells; host or cells: U-937 (human lymphoma cell line, Korean cell line bank)
Procedure: as §1
Then, the pellet was diluted with 1×HBSS(Hank's balanced salt solutin) at the concentration of 1×10^6 cells/ml, and 1 ml of them was transferred into each well of 12-well plates, and then dissolved with DMSO. 5μl of the diluted sample solution, and 5μl of DMSO vehicle were added therein and mixed, and the mixture was cultured at 37° C. in Co2 incubator for 15 minutes. Arachidonic acid as a substrate was dissolved in ethanol to prepare a stock solution with a concentration of 10 mM, followed by diluting with 1×HBSS to prepare the solution of 1 mM. 10 μl of 1 mM Arachidonic acid solution was added to each of the treated wells, and the mixture was cultured at 37° C. in CO2 incubator for 30 minutes. The cell solution of each well was collected in the centrifuge tube and was centrifuged at 4° C. for 5 minutes at 10,000 rpm. As PGE2 existed in the supernatant separated from collected cell, the concentration of PGE2 was quantitated by using monoclonal kit from Cayman Chemicals, and the concentration of samples and vehicle were compared to estimate the inhibition ratio (%) of each compound against cyclooxygenase-1. Ultimately, the inhibition effect against the cyclooxygenase-1 enzyme was obtained from the result.

T2 sequence (P23219 24-599): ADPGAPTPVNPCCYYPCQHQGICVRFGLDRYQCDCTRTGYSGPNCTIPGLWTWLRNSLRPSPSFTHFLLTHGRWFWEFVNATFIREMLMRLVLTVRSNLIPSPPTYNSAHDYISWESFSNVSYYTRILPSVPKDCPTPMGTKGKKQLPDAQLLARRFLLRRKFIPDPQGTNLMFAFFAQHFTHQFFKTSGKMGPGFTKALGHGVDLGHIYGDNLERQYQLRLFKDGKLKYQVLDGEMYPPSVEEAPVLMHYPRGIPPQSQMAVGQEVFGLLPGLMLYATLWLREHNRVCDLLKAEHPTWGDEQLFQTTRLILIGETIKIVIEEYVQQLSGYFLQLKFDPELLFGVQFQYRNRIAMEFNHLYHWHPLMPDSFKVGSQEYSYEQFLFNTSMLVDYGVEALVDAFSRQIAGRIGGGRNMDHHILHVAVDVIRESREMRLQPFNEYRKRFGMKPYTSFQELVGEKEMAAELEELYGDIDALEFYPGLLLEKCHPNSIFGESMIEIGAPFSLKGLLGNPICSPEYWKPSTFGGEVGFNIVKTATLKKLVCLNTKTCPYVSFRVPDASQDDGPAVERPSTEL

Row | Compound | Inhibitory effects of cyclooxygenase (COX): COX-2 (cyclooxygenase-2; 30 nM) [% inhibition] | Inhibitory effects of cyclooxygenase (COX): COX-2 (cyclooxygenase-2; 100 nM) [% inhibition] | Inhibitory effects of cyclooxygenase (COX): COX-2 (cyclooxygenase-2; 300 nM) [% inhibition] | Inhibitory effects of cyclooxygenase (COX): COX-1 (cyclooxygenase-1; 3 μM) [% inhibition] | Inhibitory effects of cyclooxygenase (COX): COX-1 (cyclooxygenase-1; 10 μM) [% inhibition] | Inhibitory effects of cyclooxygenase (COX): COX-1 (cyclooxygenase-1; 30 μM) [% inhibition]
1 | Cc1nc(-c2ccc(Cl)cc2)n(-c2ccc(S(N)(=O)=O)cc2)n1 [Example 3, 4-[5-(4-chloro-phenyl)-3-methyl-[1,2,4]triazole-1-yl]-benzenesulfonamide] | 40.0 | 74.1 | 82.9 | 0.1 | 13.8 | 29.7
2 | Cc1nc(-c2cccc(F)c2)n(-c2ccc(S(N)(=O)=O)cn2)n1 [Example 20, 6-[5-(3-fluoro-phenyl)-3-mehtyl-[1,2,4]triazole-1-yl]-pyridine-3-sulfonic acid amide] | 30.2 | 57.8 | 74.0 | 27.2 | 31.6 | 34.7
3 | COc1ccccc1-c1nc(C)nn1-c1ccc(S(N)(=O)=O)cc1 [Example 11, 4-[5-(2-methoxy-phenyl)-3-methyl-[1,2,4]triazole-1-yl]-benzenesulfonamide] | 25.0 | 25.2 | 37.7 | 54.0 | 61.3 | 67.2
4 | Cc1nc(-c2ccc(Cl)cc2)n(-c2ccc(S(N)(=O)=O)cn2)n1 [Example 16, 6-[5-(4-chloro-phenyl)-3-methyl-[1,2,4]triazole-1-yl]-pyridine-3-sulfonic acid amide] | 32.4 | 34.1 | 85.2 | 24.5 | 43.2 | 55.1
5 | Cc1ccc(-c2nc(C)nn2-c2ccc(S(N)(=O)=O)cn2)cc1 [Example 18, 6-(3-methyl-5-p-toly-[1,2,4]triazole-1-yl)-pyridine-3-sulfonic acid amide] | 26.4 | 37.5 | 46.5 | 50.4 | 62.9 | 75.1
6 | Cc1nc(-c2ccc(F)cc2)n(-c2ccc(S(C)(=O)=O)cc2)n1 [Example 26, 5-(4-fluoro-phenyl)-1-(4-methanesulfonyl-phenyl)-3-methyl-1H-[1,2,4]triazole] | 20.1 | 47.7 | 64.0 | 42.0 | 51.2 | 55.1
7 | COc1cc(OC)cc(-c2nc(C)nn2-c2ccc(S(N)(=O)=O)cn2)c1 [Example 22, 6-[5-(3,5-dimethoxy-phenyl)-3-methyl-[1,2,4]triazole-1-yl]-pyridine-3-sulfonic acid amide] | 27.3 | 29.8 | 36.2 | 15.1 | 26.8 | 31.1
